Measured values from patent publication US8546343B2, “Aminoglycoside antibiotics targeting bacterial 16S ribosomal RNA” (Eidgenoessische Technische Hochschule Zurich, priority 2007, dated 2013).
In brackets after ≈: the same amount, converted by molar mass.

Tests used:
[1] = system: AG009 E. coli BM13 AAC(6′)-1B; experiment: Standard MIC assay, AG009; format: cell-based, Escherichia coli; settings: E. coli BM13 AAC(6′)-1B
Procedure: (§1) Selected compounds of the present invention were tested for antibiotic susceptibility using clinical isolates of Staphylococci, Enterococci and Escherichia coli as well as strains carrying defined resistance determinants and compared to well known antibiotics of the state of the art. Drug susceptibility was determined in standard MIC assays, i.e. by determination of the minimal drug concentration required to inhibit bacterial growth in vitro.

[2] = system: M. smegmatis ΔrrnB 1491C (16S rRNA position 1491 C, eukaryotic mitochondrial ribosome); experiment: MIC, recombinant M. smegmatis with mutant ribosomes 1491C; format: cell-based, Mycobacterium smegmatis; settings: M. smegmatis ΔrrnB 1491C mutant ribosomes; 72 h at 37° C.
Summary of the method: (§2)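 M. smegmatis single-rRNA-operon strain carrying the indicated 16S rRNA decoding-site alleles, introduced into the chromosomal operon and confirmed by sequencing. Colony-purified cultures were grown in LB with 0.05% Tween 80 and started at OD600 0.025. MIC was read in microtiter format against twofold drug dilutions.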

[3] = system: AG008 E. coli BM13 (ANT2″); experiment: Standard MIC assay, AG008; format: cell-based, Escherichia coli; settings: E. coli BM13 (ANT2″)
Procedure: as §1

[4] = system: AG019 E. faecalis JH2-2 (APH2″ AAC6′); experiment: Standard MIC assay, AG019; format: cell-based, Enterococcus faecalis; settings: E. faecalis JH2-2 (APH2″ AAC6′)
Procedure: as §1

[5] = system: AG015 S. aureus BM3002 (ANT4′); experiment: Standard MIC assay, AG015; format: cell-based, Staphylococcus aureus; settings: S. aureus BM3002 (ANT4′)
Procedure: as §1

[6] = system: AG002 E. coli clinical isolate; experiment: Standard MIC assay, AG002; format: cell-based, Escherichia coli
Procedure: as §1

[7] = system: AG007 E. coli BM13 (AAC3); experiment: Standard MIC assay, AG007; format: cell-based, Escherichia coli; settings: E. coli BM13 (AAC3)
Procedure: as §1

[8] = system: M. smegmatis ΔrrnB 1491A (16S rRNA position 1491 A, eukaryotic cytosolic ribosomes); experiment: MIC, recombinant M. smegmatis with mutant ribosomes 1491A; format: cell-based, Mycobacterium smegmatis; settings: M. smegmatis ΔrrnB 1491A mutant ribosomes; 72 h at 37° C.
Summary of the method: as §2

[9] = system: AG017 E. faecalis JH2-2; experiment: Standard MIC assay, AG017; format: cell-based, Enterococcus faecalis
Procedure: as §1

[10] = system: AG011 Staph. aureus clinical isolate; experiment: Standard MIC assay, AG011; format: cell-based, Staphylococcus aureus
Procedure: as §1

[11] = system: M. smegmatis ΔrrnB 1408G (16S rRNA position 1408 G, eukaryotic cytosolic ribosomes); experiment: MIC, recombinant M. smegmatis with mutant ribosomes 1408G; format: cell-based, Mycobacterium smegmatis; settings: M. smegmatis ΔrrnB 1408G mutant ribosomes; 72 h at 37° C.
Summary of the method: as §2

[12] = system: AG013 Staph. epi. clinical isolate; experiment: Standard MIC assay, AG013; format: cell-based, Staphylococcus epidermidis
Procedure: as §1

[13] = system: AG006 E. coli BM13; experiment: Standard MIC assay, AG006; format: cell-based, Escherichia coli
Procedure: as §1

[14] = system: M. smegmatis ΔrrnB (bacterial ribosomes); experiment: MIC, recombinant M. smegmatis with bacterial (wild-type) ribosomes; format: cell-based, Mycobacterium smegmatis; settings: 72 h at 37° C.
Summary of the method: as §2

[15] = system: AG004 E. coli clinical isolate; experiment: Standard MIC assay, AG004; format: cell-based, Escherichia coli
Procedure: as §1

[16] = system: AG016 S. aureus BM3002; experiment: Standard MIC assay, AG016; format: cell-based, Staphylococcus aureus
Procedure: as §1

[17] = system: AG003 E. coli clinical isolate; experiment: Standard MIC assay, AG003; format: cell-based, Escherichia coli
Procedure: as §1

[18] = system: AG014 Staph. epi. clinical isolate; experiment: Standard MIC assay, AG014; format: cell-based, Staphylococcus epidermidis
Procedure: as §1

[19] = system: AG001 E. coli clinical isolate; experiment: Standard MIC assay, AG001; format: cell-based, Escherichia coli
Procedure: as §1

Row | Compound | Minimal inhibitory concentrations AG009 [1] | minimal inhibitory concentrations ΔrrnB 1491C [2] | Minimal inhibitory concentrations AG008 [3] | Minimal inhibitory concentrations AG019 [4] | Minimal inhibitory concentrations AG015 [5] | Minimal inhibitory concentrations AG002 [6] | Minimal inhibitory concentrations AG007 [7] | minimal inhibitory concentrations ΔrrnB 1491A [8] | Minimal inhibitory concentrations AG017 [9] | Minimal inhibitory concentrations AG011 [10] | minimal inhibitory concentrations ΔrrnB 1408G [11] | Minimal inhibitory concentrations AG013 [12] | Minimal inhibitory concentrations AG006 [13] | minimal inhibitory concentrations ΔrrnB [14] | Minimal inhibitory concentrations AG004 [15] | Minimal inhibitory concentrations AG016 [16] | Minimal inhibitory concentrations AG003 [17] | Minimal inhibitory concentrations AG014 [18] | Minimal inhibitory concentrations AG001 [19]
1 | NC[C@@H]1O[C@H](O[C@H]2[C@@H](O)[C@H](O[C@@H]3[C@@H](O)[C@H](N)C[C@H](N)[C@H]3O[C@H]3O[C@@H]4COC(C=Cc5ccccc5)O[C@H]4[C@H](O)[C@H]3N)O[C@@H]2CO)[C@H](N)[C@@H](O)[C@@H]1O (some centres unmarked) [Compound 5.26, 4′,6′-O-(3-Phenyl)-propenylideneparomomycin] | 128 µg/mL (≈ 175 µM) | ≧512 μg/ml | 32 µg/mL (≈ 43.8 µM) | 64 to 128 µg/mL | 16 to 32 µg/mL | 64 µg/mL (≈ 87.7 µM) | 32 µg/mL (≈ 43.8 µM) | ≧512 μg/ml | 16 to 32 µg/mL | 4 µg/mL (≈ 5.48 µM) | ≧512 μg/ml | 4 to 8 µg/mL | 32 µg/mL (≈ 43.8 µM) | 2 to 4 µg/mL | 32 µg/mL (≈ 43.8 µM) | 8 µg/mL (≈ 11 µM) | 32 µg/mL (≈ 43.8 µM) | 4 µg/mL (≈ 5.48 µM) | 32 to 64 µg/mL
2 | NC[C@@H]1O[C@H](O[C@H]2[C@@H](O)[C@H](O[C@@H]3[C@@H](O)[C@H](N)C[C@H](N)[C@H]3O[C@H]3O[C@@H]4CO[C@@H](CCc5ccccc5)O[C@H]4[C@H](O)[C@H]3N)O[C@@H]2CO)[C@H](N)[C@@H](O)[C@@H]1O [Compound 5.25, 4′,6′-O-(3-Phenyl)-propylideneparomomycin] | 64 to 128 µg/mL | ≧512 μg/ml | 32 µg/mL (≈ 43.7 µM) | 32 µg/mL (≈ 43.7 µM) | 8 to 16 µg/mL | 32 to 64 µg/mL | 16 to 32 µg/mL | ≧512 μg/ml | 8 µg/mL (≈ 10.9 µM) | 4 µg/mL (≈ 5.47 µM) | 512 µg/mL | 4 to 8 µg/mL | 16 to 32 µg/mL | 1 µg/mL | 32 µg/mL (≈ 43.7 µM) | 8 µg/mL (≈ 10.9 µM) | 32 µg/mL (≈ 43.7 µM) | 4 µg/mL (≈ 5.47 µM) | 32 to 64 µg/mL
3 | Gentamicin [reference compound] | 32 µg/mL |  | 64 µg/mL | >256 µg/mL | 4 µg/mL | 2 µg/mL | 128 µg/mL |  | 8 to 16 µg/mL | 4 µg/mL |  | ≧256 mg/l | 4 µg/mL |  | >256 µg/mL | 1 µg/mL | ≧256 mg/l | ≧256 mg/l | 4 µg/mL
4 | NC[C@@H]1O[C@H](O[C@H]2[C@@H](O)[C@H](O[C@@H]3[C@@H](O)[C@H](N)C[C@H](N)[C@H]3O[C@H]3O[C@@H]4CO[C@@H](c5ccc(C(F)(F)F)cc5)O[C@H]4[C@H](O)[C@H]3N)O[C@@H]2CO)[C@H](N)[C@@H](O)[C@@H]1O [Compound 5.17, 4′,6′-O-p-Trifluoromethylbenzylideneparomomycin] | 64 to 128 µg/mL | 512 µg/mL | 32 µg/mL (≈ 41.5 µM) | 128 µg/mL (≈ 166 µM) | 32 µg/mL (≈ 41.5 µM) | 32 to 64 µg/mL | 32 µg/mL (≈ 41.5 µM) | 512 µg/mL | 32 µg/mL (≈ 41.5 µM) | 4 µg/mL (≈ 5.18 µM) | >512 µg/mL | 4 to 8 µg/mL | 32 µg/mL (≈ 41.5 µM) | 2 to 4 µg/mL | 32 µg/mL (≈ 41.5 µM) | 8 µg/mL (≈ 10.4 µM) | 32 to 64 µg/mL | 4 µg/mL (≈ 5.18 µM) | 32 to 64 µg/mL
5 | NC[C@@H]1O[C@H](O[C@H]2[C@@H](O)[C@H](O[C@@H]3[C@@H](O)[C@H](N)C[C@H](N)[C@H]3O[C@H]3O[C@@H]4CO[C@@H](c5ccccc5)O[C@H]4[C@H](O)[C@H]3N)O[C@@H]2CO)[C@H](N)[C@@H](O)[C@@H]1O [Compound 5.1, 4′,6′-O-benzylideneparomomycin] | 128 µg/mL (≈ 182 µM) | >512 µg/mL | 32 µg/mL (≈ 45.5 µM) | 256 µg/mL (≈ 364 µM) | 32 to 64 µg/mL | 64 µg/mL (≈ 90.9 µM) | 32 µg/mL (≈ 45.5 µM) | 512 µg/mL | 32 to 64 µg/mL | 8 µg/mL (≈ 11.4 µM) | 512 µg/mL | 8 to 16 µg/mL | 32 µg/mL (≈ 45.5 µM) | 4 µg/mL | 32 to 64 µg/mL | 16 to 32 µg/mL | 32 µg/mL (≈ 45.5 µM) | 8 µg/mL (≈ 11.4 µM) | 64 µg/mL (≈ 90.9 µM)
6 | NC[C@@H]1O[C@H](O[C@H]2[C@@H](O)[C@H](O[C@@H]3[C@@H](O)[C@H](N)C[C@H](N)[C@H]3O[C@H]3O[C@H](CO)[C@@H](OCc4ccc(Cl)cc4)[C@H](O)[C@H]3N)O[C@@H]2CO)[C@H](N)[C@@H](O)[C@@H]1O [Compound 19a, 4′-p-chlorobenzylparomomycin] | 32 µg/mL (≈ 43.2 µM) | >512 µg/mL | 8 to 16 µg/mL | 32 to 64 µg/mL | 8 to 16 µg/mL | 16 µg/mL (≈ 21.6 µM) | 8 to 16 µg/mL | ≧512 μg/ml | 8 to 16 µg/mL | 2 µg/mL (≈ 2.7 µM) | ≧512 μg/ml | 4 µg/mL (≈ 5.4 µM) | 8 to 16 µg/mL | 2 µg/mL | 8 to 16 µg/mL | 4 µg/mL (≈ 5.4 µM) | 8 to 16 µg/mL | 2 µg/mL (≈ 2.7 µM) | 8 to 16 µg/mL
7 | NC[C@H]1O[C@H](O[C@H]2[C@H](O)[C@@H](O[C@H]3O[C@H](CO)[C@@H](O)[C@H](N)[C@H]3O)[C@H](N)C[C@@H]2N)[C@H](O)[C@@H](O)[C@@H]1O [Kanamycin A, kanamycin A, reference compound] | >256 µg/mL |  | 128 µg/mL (≈ 264 µM) | >256 µg/mL | 256 µg/mL (≈ 528 µM) | 16 µg/mL (≈ 33 µM) | 8 µg/mL (≈ 16.5 µM) |  | 32 to 64 µg/mL | 16 µg/mL (≈ 33 µM) |  | ≧256 mg/l | 8 µg/mL (≈ 16.5 µM) |  | 64 µg/mL (≈ 132 µM) | 4 to 8 µg/mL | 32 µg/mL (≈ 66 µM) | ≧256 mg/l | 16 µg/mL (≈ 33 µM)
